Read-outs that look alike come from different tables or passages of the source.
Assay: Plasma pharmacokinetics (LC-MS/MS)
Type: in vivo, human
Conditions: human, plasma; for concentration at 15 day: read-out: Cmin, Median (Min, max)
Method: In the dose escalation part of the study, PK samples were collected at various pre- and post-dose time points on C1D1, D2, D3, D15 and D16. Drug concentrations were assessed using a validated liquid chromatography-tandem mass spectrometry assay.

## CC1(N)CCN(c2cccnc2NC(=O)c2nc(-c3ncccc3C(F)(F)F)cnc2N)CC1 [LXS196]
oral, 500 mg, C1D1, 500 mg QD, n=10, read-out: AUC0-t, Median (Min, max)
  AUC(0-t): 50700 ng·h/mL
oral, 500 mg, C1D1, 500 mg QD, n=10, read-out: AUCinf, Geo-mean
  AUC(0-inf): 59500 ng·h/mL
oral, 500 mg, C1D1, 500 mg QD, n=10, read-out: AUCinf, Mean (SD)
  AUC(0-inf): 63400 ng·h/mL
oral, 500 mg, C1D1, 500 mg QD, n=10, read-out: AUCinf, Median (Min, max)
  AUC(0-inf): 61700 ng·h/mL
oral, 500 mg, C1D1, 500 mg QD, n=10, read-out: Cmax, Geo-mean
  Cmax: 4670 ng/mL
oral, 500 mg, C1D1, 500 mg QD, n=10, read-out: Cmax, Mean (SD)
  Cmax: 4970 ng/mL
oral, 500 mg, C1D1, 500 mg QD, n=10, read-out: Cmax, Median (Min, max)
  Cmax: 4380 ng/mL
oral, 500 mg, C1D1, 500 mg QD, n=10, read-out: T1/2, Geo-mean (converted)
  half-life: 10.1 h
oral, 500 mg, C1D1, 500 mg QD, n=10, read-out: T1/2, Mean (SD) (converted)
  half-life: 10.2 h
oral, 500 mg, C1D1, 500 mg QD, n=10, read-out: T1/2, Median (Min, max) (converted)
  half-life: 10.1 h
oral, 500 mg, C1D1, 500 mg QD, n=10, read-out: Tmax, Median (Min, max)
  Tmax: 1.03 h
oral, 500 mg, C1D15, 500 mg QD, n=9, read-out: AUC0-t, Geo-mean
  AUC(0-t): 43100 ng·h/mL
oral, 500 mg, C1D15, 500 mg QD, n=9, read-out: AUC0-t, Mean (SD)
  AUC(0-t): 45700 ng·h/mL
oral, 500 mg, C1D15, 500 mg QD, n=9, read-out: AUC0-t, Median (Min, max)
  AUC(0-t): 41700 ng·h/mL
oral, 500 mg, C1D15, 500 mg QD, n=9, read-out: Cmax, Geo-mean
  Cmax: 3870 ng/mL
oral, 500 mg, C1D15, 500 mg QD, n=9, read-out: Cmax, Mean (SD)
  Cmax: 4170 ng/mL
oral, 500 mg, C1D15, 500 mg QD, n=9, read-out: Cmax, Median (Min, max)
  Cmax: 3700 ng/mL
oral, 500 mg, C1D15, 500 mg QD, n=9
  concentration at 15 day: 643 ng/mL
oral, 500 mg, C1D15, 500 mg QD, n=9, read-out: Tmax, Median (Min, max)
  Tmax: 1.07 h
oral, 800 mg, C1D1, 800 mg QD, n=1, read-out: AUC0-t, Geo-mean
  AUC(0-t): 54300 ng·h/mL
oral, 800 mg, C1D1, 800 mg QD, n=1, read-out: AUC0-t, Mean (SD)
  AUC(0-t): 54300 ng·h/mL
oral, 800 mg, C1D1, 800 mg QD, n=1, read-out: AUC0-t, Median (Min, max)
  AUC(0-t): 54300 ng·h/mL
oral, 800 mg, C1D1, 800 mg QD, n=1, read-out: AUCinf, Geo-mean
  AUC(0-inf): 66200 ng·h/mL
oral, 800 mg, C1D1, 800 mg QD, n=1, read-out: AUCinf, Mean (SD)
  AUC(0-inf): 66200 ng·h/mL
oral, 800 mg, C1D1, 800 mg QD, n=1, read-out: AUCinf, Median (Min, max)
  AUC(0-inf): 66200 ng·h/mL
oral, 800 mg, C1D1, 800 mg QD, n=1, read-out: Cmax, Geo-mean
  Cmax: 6080 ng/mL
oral, 800 mg, C1D1, 800 mg QD, n=1, read-out: Cmax, Mean (SD)
  Cmax: 6080 ng/mL
oral, 800 mg, C1D1, 800 mg QD, n=1, read-out: Cmax, Median (Min, max)
  Cmax: 6080 ng/mL
oral, 800 mg, C1D1, 800 mg QD, n=1, read-out: T1/2, Geo-mean (converted)
  half-life: 8.85 h
oral, 800 mg, C1D1, 800 mg QD, n=1, read-out: T1/2, Mean (SD) (converted)
  half-life: 8.85 h
oral, 800 mg, C1D1, 800 mg QD, n=1, read-out: T1/2, Median (Min, max) (converted)
  half-life: 8.85 h
oral, 800 mg, C1D1, 800 mg QD, n=1, read-out: Tmax, Median (Min, max)
  Tmax: 0.483 h
oral, 1000 mg, C1D1, 1000 mg QD, n=3, read-out: AUCinf, Geo-mean
  AUC(0-inf): 75700 ng·h/mL
oral, 1000 mg, C1D1, 1000 mg QD, n=3, read-out: AUCinf, Mean (SD)
  AUC(0-inf): 78000 ng·h/mL
oral, 1000 mg, C1D1, 1000 mg QD, n=3, read-out: AUCinf, Median (Min, max)
  AUC(0-inf): 66000 ng·h/mL
oral, 1000 mg, C1D1, 1000 mg QD, n=3, read-out: T1/2, Geo-mean (converted)
  half-life: 9.94 h
oral, 1000 mg, C1D1, 1000 mg QD, n=3, read-out: T1/2, Mean (SD) (converted)
  half-life: 10 h
oral, 1000 mg, C1D1, 1000 mg QD, n=3, read-out: T1/2, Median (Min, max) (converted)
  half-life: 9.32 h
oral, 1000 mg, C1D1, 1000 mg QD, n=4, read-out: AUC0-t, Geo-mean
  AUC(0-t): 69700 ng·h/mL
oral, 1000 mg, C1D1, 1000 mg QD, n=4, read-out: AUC0-t, Mean (SD)
  AUC(0-t): 74300 ng·h/mL
oral, 1000 mg, C1D1, 1000 mg QD, n=4, read-out: AUC0-t, Median (Min, max)
  AUC(0-t): 70100 ng·h/mL
oral, 1000 mg, C1D1, 1000 mg QD, n=4, read-out: Cmax, Geo-mean
  Cmax: 5080 ng/mL
oral, 1000 mg, C1D1, 1000 mg QD, n=4, read-out: Cmax, Mean (SD)
  Cmax: 5410 ng/mL
oral, 1000 mg, C1D1, 1000 mg QD, n=4, read-out: Cmax, Median (Min, max)
  Cmax: 5230 ng/mL
oral, 1000 mg, C1D1, 1000 mg QD, n=4, read-out: Tmax, Median (Min, max)
  Tmax: 2 h
oral, 1000 mg, C1D15, 1000 mg QD, n=2, read-out: AUC0-t, Geo-mean
  AUC(0-t): 48000 ng·h/mL
oral, 1000 mg, C1D15, 1000 mg QD, n=2, read-out: AUC0-t, Mean (SD)
  AUC(0-t): 48300 ng·h/mL
oral, 1000 mg, C1D15, 1000 mg QD, n=2, read-out: AUC0-t, Median (Min, max)
  AUC(0-t): 48300 ng·h/mL
oral, 1000 mg, C1D15, 1000 mg QD, n=2, read-out: Cmax, Geo-mean
  Cmax: 4870 ng/mL
oral, 1000 mg, C1D15, 1000 mg QD, n=2, read-out: Cmax, Mean (SD)
  Cmax: 5110 ng/mL
oral, 1000 mg, C1D15, 1000 mg QD, n=2, read-out: Cmax, Median (Min, max)
  Cmax: 5110 ng/mL
oral, 1000 mg, C1D15, 1000 mg QD, n=2
  concentration at 15 day: 674 ng/mL
oral, 1000 mg, C1D15, 1000 mg QD, n=2, read-out: Tmax, Median (Min, max)
  Tmax: 0.792 h
oral, across different doses, read-out: Terminal T1/2 (converted)
  half-life: ~11 h
oral, fasting, 100–1000 mg QD and 200–400 mg BID, read-out: Tmax
  Tmax: ~1 h
po, D1 and D15, read-out: Median Tmax, range across dose groups
  Tmax: 0.483 to 2 h
po, read-out: Mean terminal half-life (T1/2), range across dose groups
  half-life: 8.49 to 13.8 h

From PMC10006169, “A phase I trial of LXS196, a protein kinase C (PKC) inhibitor, for metastatic uveal melanoma” (British Journal of Cancer, 2023)
